Measurements as given in patent US9938238B2, “Anti-auxin compounds” (priority 2015, dated 2018).

Key:
Type in all cases: in vivo, Arabidopsis
[1] = system: ctr1-3 seedlings; test: Seedling triple response of constitutive ethylene response mutant ctr1-3 (library screen and follow-up); settings: etiolated ctr1-3 in air, 4 d, 50 μM of each chemical
Method: For screening for chemicals that reduce ethylene response, Arabidopsis ctr1-3 seeds were planted on a microtiter plate containing PNS media in the presence of individual chemicals (50 μM concentration of each) from the Microsource Spectrum Collection. Seedlings were grown in the dark for 4 d after which they were scored for manifestation of the ethylene responsive triple response. For all other growth experiments, seedlings were planted on PNS media supplemented with the relevant chemical (Deslauriers and Larsen, 2010). For conditions requiring pamoic acid, media was supplemented with Pamoic acid disodium salt (Sigma Life Science, St. Louis, Mo.). Measurement of ethylene production was conducted as previously described (Deslauriers and Larsen, 2010).
A chemical library screen was performed in which etiolated seedlings of the constitutive ethylene response mutant, ctr1-3, were grown in air for 4 d in the presence of chemicals from the Microsource Spectrum Collection, a bioactive and natural compound library consisting of 2000 different compounds. ctr1-3 seedlings were scored for presentation of the ethylene regulated seedling triple response, consisting of severe hypocotyl and root shortening and exaggerated apical hook formation.

[2] = system: ETR2, AtEBP, ACO2 expression; test: Northern analysis of ethylene responsive gene expression in seedlings; settings: Col-0 wt, hydroponic, dark 4 d
Method: (§1) Total RNA was extracted from leaf tissue using the RNeasy Plant Mini Kit (Qiagen, Valencia, Calif.). 10 μg of total RNA was separated by electrophoresis in a 1% (w/v) denaturing agarose gel, after which the RNA was blotted to Zeta-Probe GT Blotting Membrane (Bio-Rad, Hercules, Calif.). ^32P-labelled probes were generated using the RadPrime DNA labeling system (Invitrogen).
Manifestation of ethylene response is dependent on transcriptional induction of ethylene-regulated genes (Alonso et al., 2003; Chao et al., 1997; Solano et al., 1998). This relies on two primary transcription factors, EIN3 and EIL1, with mutational loss of both causing nearly complete ethylene insensitivity. It could be predicted that since PA treatment limits ethylene response it would also reduce or prevent ethylene inducible gene expression similar to the ethylene insensitive ein3-1; eil1-1 double mutant. To test this, Col-0 wt seedlings were treated with 5 μM AgNO3 or increasing concentrations of ethylene in the absence or presence of 25 μM PA, which is also a concentration that results in blockage of ethylene response. […] The latter two genes are not properly expressed in a group of enhanced ethylene response Arabidopsis mutants, with these argued to be members of a subset of ethylene regulated genes whose products are required for controlling the magnitude of ethylene response (Christians and Larsen, 2007; Christians et al., 2008; Deslauriers and Larsen, 2010; Robles et al., 2007).
In contrast to PA treatment, auxin has an antagonistic relationship regarding induction of this same subset of genes. Col-0 wt seedlings were grown hydroponically in the dark for 4 d in the presence of 5 μM AgNO3, 1 μM ACC or 10 μM ACC in the absence or presence of 10 μM 1-naphthaleneacetic acid (NAA) after which tissue was collected for RNA isolation and Northern analysis.

[3] = system: chiB and PDF1.2 expression; test: Expression of ethylene regulated defense genes in leaves; settings: 24 h
Method: as §1
For this analysis, Arabidopsis plants were grown hydroponically for 13 d after which they were treated with or without 10 μM ACC in the absence or presence of 25 μM PA, with all samples exposed to 10 μM+/−JA for the 24 h treatment period. […] Auxin functions in a synergistic manner with ethylene and JA to control expression of PDF1.2, with addition of auxin resulting in its hyperinduction (Robles et al., 2012).

[4] = system: Col-0 wt seedlings; test: Blockage of auxin dependent inhibition of root growth; settings: for root length, auxin alone: light, 7 d, 150 nM NAA or 300 nM IAA versus untreated roots
Method: For screening for chemicals that reduce ethylene response, Arabidopsis ctr1-3 seeds were planted on a microtiter plate containing PNS media in the presence of individual chemicals (50 μM concentration of each) from the Microsource Spectrum Collection. Seedlings were grown in the dark for 4 d after which they were scored for manifestation of the ethylene responsive triple response. For all other growth experiments, seedlings were planted on PNS media supplemented with the relevant chemical (Deslauriers and Larsen, 2010). For conditions requiring pamoic acid, media was supplemented with Pamoic acid disodium salt (Sigma Life Science, St. Louis, Mo.). Measurement of ethylene production was conducted as previously described (Deslauriers and Larsen, 2010). […]

[5] = system: DR5::GUS; test: GUS analysis of auxin responsive DR5::GUS reporter line; settings: for GUS activity in root tip and mature region of the root, auxin alone: 100 nM NAA or 750 nM IAA
Method: GUS analysis of DR5::GUS lines was performed as previously described (Ni et al., 2001).
Auxin responsiveness has also been assessed using the Arabidopsis DR5::GUS transgenic line in which several auxin response elements are fused upstream of the GUS reporter gene (Ni et al., 2001). Normally, treatment of DR5::GUS lines with exogenous auxin leads to increased GUS levels, which can be visualized through accumulation of blue color upon adding X-Gluc.

CN1CCCN=C1/C=C/c1cccs1 [Pyrantel pamoate]
apical hook formation in chemical library screen [1]: blocked apical hook formation | root length in chemical library screen [1]: measurably longer roots

NC1(C(=O)O)CC1 [ACC, 1-aminocyclopropane-1-carboxylic acid]
induction of ACO2 and AtEBP ([2]; 1 μM or 10 μM ACC without NAA): normal ethylene responsive induction | chiB and PDF1.2 expression ([3]; plants grown 13 d hydroponically, 10 μM ACC, 10 μM JA): increased expression

O=C(O)Cc1c[nH]c2ccccc12 [IAA, indole-3-acetic acid]
root length, IAA alone ([4]; 5 days, 300 nM IAA in the absence of Tolmetin (FIG. 6)): severely inhibitory to roots | root length, auxin alone [4]: severe root growth inhibition | GUS activity in root tip and mature region of the root, auxin alone [5]: increased GUS activity | lateral root initiation, auxin alone ([5]; 750 nM IAA (FIG. 8)): promotes initiation of lateral roots

O=C(O)Cc1cccc2ccccc12 [NAA, 1-naphthaleneacetic acid]
induction of ACO2 and AtEBP ([2]; 1 μM or 10 μM ACC plus 10 μM NAA): nearly eliminated induction | ETR2 expression ([2]; ACC treatments plus 10 μM NAA): no obvious effect on ETR2 expression | chiB and PDF1.2 levels ([3]; 10 μM ACC supplemented with 250 nM NAA): far greater than what was observed following treatment with ACC alone | root length, auxin alone [4]: severe root growth inhibition | GUS activity in root tip and mature region of the root, auxin alone [5]: increased GUS activity
